Assay results from patent publication US20220267258A1, “ROBENIDINE ANALOGS AS POTENT ANTIMALARIALS AGAINST DRUG-RESISTANT PLASMODIUM FALCIPARUM” (OREGON HEALTH & SCIENCE UNIVERSITY, priority 2021, published 2022).
Where two headings read alike, the source gives them in different places.

Key:
Leishmania donovani = conditions: read-out: in vitro IC50; cited from earlier work
P. falciparum = P. falciparum in vitro, in words; cited from earlier work
T. brucei = conditions: read-out: in vitro IC50; cited from earlier work
T. cuzi = conditions: read-out: in vitro IC50; cited from earlier work
Plasmodium yoelii = assay: modified 4-day Peters test, murine malaria; assay type: in vivo, mice; conditions: for cure in this model: 4-day oral dosing, 0% parasitemia at day 30; for P. yoelii ED90 / P. yoelii ED50: oral gavage days 1-4, parasitemia day 5; for P. yoelii NRD (non-recrudescence dose, cure dose): oral, doses up to 25 mg/kg/day, no parasites at day 30
Protocol: In this modified 4-day Peters test,^41 mice were inoculated with parasites from a donor mouse (day 0), and then dosed orally with drugs on each of the subsequent four days (days 1-4). On day 5 of the experiment, the parasitemia for each mouse was determined microscopically by examining methanol-fixed and Giemsa-stained blood smears. The ED50 represents the interpolated dose of a compound at which parasitemia was suppressed to one half that of untreated controls. Similarly, the ED90 represents the dose at which parasitemia is suppressed ten-fold. Mice were considered cured of their infection if no parasites were detected in the blood 30 days from the first drug administration, and the non-recrudescence dose (NRD) represents the lowest dose to achieve a cure.
The in vivo ED50 and ED90 of selected aminoguanidines was measured using a modified 4-day Peters test. Female CF1 mice from Charles River Laboratories were inoculated intravenously with approximately 2.5-5.0×10^4 parasitized erythrocytes (murine malaria P. yoelii, Kenya strain MR4 MRA-428) from a donor mouse (experiment day zero). On the following four days (experiment days 1-4), solutions of the test compounds in PEG-300 (or PEG-300 only for control mice) were administered by oral gavage once daily. […] Parasitemia of each mouse was determined by microscopic examination of Giemsa stained blood smears on day 5. ED50 and ED90 values were assessed by generating dose-response curves relative to untreated controls using Graphpad Prism (v. 8). Mice were considered cured of malarial infection if they maintained 0% parasitemia at experiment day 30. The procedures involved, together with all matters relating to the care, handling, and housing of the animals used in this study, were approved by the Portland VA Medical Center Institutional Animal Care and Use Committee.

P. falciparum Dd2 = assay: SYBR Green growth inhibition assay, P. falciparum Dd2; assay type: cell-based, Plasmodium falciparum; conditions: read-out: IC50 Dd2
Protocol: (§1) In addition to the drug-sensitive P. falciparum D6 strain, the aminoguanidines were assessed against three drug-resistant strains (Tables 1-3).
(§2) The following parasite strains were used in this study and obtained through BEI Resources, NIAID, NIH. […] The culture medium used was RPMI-1640, supplemented with 25 mM HEPES buffer, 25 mg/L gentamicin sulfate, 45 mg/L hypoxanthine, 10 mM glucose, 2 mM glutamine, and 0.5% Albumax II (complete medium).^43 Cultures were maintained in a standard low oxygen atmosphere (5% O2, 5% CO2, 90% N2) in an environmental chamber and incubated at 37° C. Cultures were sub-passaged every 3-4 days into a fresh culture flask containing complete media and erythrocytes.
(§3) The aminoguanidine series was assessed for in vitro antiplasmodial activity using the fluorescence-based SYBR Green assay described previously by Smilkstein and co-workers.^38 Compounds were evaluated in quadruplicate in flat-bottomed Costar clear 96-well plates (Model #3585). A two-fold serial dilution of each compound was performed across the columns of the test plates starting with 20 μM and ending with a final untreated column to serve as control wells. Asynchronous parasite infected erythrocytes in growth media were added to each well for a total volume of 100 μL, final hematocrit of 2%, and initial parasitemia of 0.2%. The commercial malaria drugs atovaquone and chloroquine were used as control drugs. Test plates were incubated for 72 hr at 37° C. in an environmental chamber with a controlled low oxygen atmosphere (5% O2, 5% CO2, 90% N2). After the incubation period, 100 μL SYBR Green I dye-detergent solution was added to each well, and the plates were incubated at ambient temperature and atmosphere in the dark for at least one hour. Fluorescence was read at 497 nm excitation and 520 nm emission bands using a Spectramax iD3 plate reader. Fluorescence readings were normalized with respect to the untreated control wells representing normal parasite growth and plotted against the logarithm of drug concentration.

[1] = tested on: human hepatoma derived HepG2 cells; assay: HepG2 cytotoxicity assay (resazurin); assay type: cell-based; conditions: for IC50: HepG2, 24 hr drug, 24 hr recovery
Protocol: (§4) In this assay, HepG2 cells were incubated with test compounds for 24 hours, followed by a 24-hour recovery period and subsequent staining to evaluate for cytotoxic effects with resazurin. The ratio of the resulting HepG2 IC50 value to the P. falciparum D6 IC50 value can be considered an ‘in vitro therapeutic index,’ or IVTI.
(§5) Compounds were prepared as 10 mM stock solutions in DMSO. […] HepG2 cells were added to each well of flat bottom 96-well tissue culture plates at an initial density of 2×10^4 cells per well, and an initial volume of 160 μL complete medium per well. After an overnight incubation at 37° C. to adhere the cells to the culture plates, 40 μL drug solutions in complete medium were applied to each well at a final concentration range of 0 to 200 μM across each plate. Drugs were tested in triplicate or quadruplicate. The cells were incubated for 24 hours at 37° C. and 5% CO2 with the drug solutions, which were then aspirated and replaced with 200 μL per well of complete medium for an additional 24 hour incubation under the same conditions. To each well was added 20 μL of resazurin (Alamar Blue) in PBS buffer to a final concentration of 10 μM, and the plates were incubated for 3 hours. Fluorescence was measured at 560 nm excitation and 590 nm emission bands using a Spectramax iD3 plate reader. Fluorescence readings were normalized with respect to the untreated control wells and plotted against the logarithm of drug concentration.

P. falciparum Tm90-C2B = assay: SYBR Green growth inhibition assay, P. falciparum Tm90-C2B; assay type: cell-based, Plasmodium falciparum; conditions: read-out: IC50 Tm90-C2B
Protocol: as §1, §2, §3

P. falciparum A6 = assay: SYBR Green growth inhibition assay, P. falciparum A6; assay type: cell-based, Plasmodium falciparum; conditions: read-out: IC50 A6
Protocol: as §1, §2, §3

P. falciparum strain D6 = assay: SYBR Green growth inhibition assay, P. falciparum D6; assay type: cell-based, Plasmodium falciparum; conditions: read-out: IC50 D6
Protocol: (§6) The in vitro activity of each compound in the aminoguanidine library was assessed against asynchronous cultures of Plasmodium falciparum parasites replicating within human erythrocytes (Tables 1-3). As the chemical development of robenidine was not discussed in its original publication in 1970^4 and limited structural information is available regarding its mechanism of action,^10 profiling was guided primarily by in vitro potency against the P. falciparum D6 strain cultured in human erythrocytes as described above.
as §2
as §3, with “The commercial malaria drugs atovaquone and chloroquine were used as control drugs.” left out

P. falciparum strains = assay type: cell-based, Plasmodium falciparum
Protocol: as §6
All aminoguanidines synthesized were also evaluated against three multi-drug resistant P. falciparum strains (Dd2, Tm90-C2B, and A6) and for mammalian cell cytotoxicity.
as §1
as §3, with “The commercial malaria drugs atovaquone and chloroquine were used as control drugs.” left out

[2] = HepG2 cytotoxicity assay (resazurin); assay type: cell-based, human; conditions: human, HepG2 cells; HepG2, 24 hr drug, 24 hr recovery
Protocol: as §4, §5

[3] = tested on: P. falciparum Dd2 infected erythrocytes; assay: SYBR Green assay adapted to 48, 72 or 96 hr incubation; assay type: cell-based; conditions: Plasmodium falciparum, DD2, Erythrocyte
Protocol: Many drugs have activity dependent on their exposure time in addition to concentration, and antimalarial potency is frequently stage-specific. To determine whether the aminoguanidines acted by a time-dependent mechanism against malaria parasites, the SYBR Green activity assay was adapted to include additional incubation intervals. Two potent aminoguanidines, 16 and 21, were incubated with P. falciparum Dd2 infected erythrocytes for 48, 72, or 96 hours (FIG. 3). […] A shorter incubation time allows for less parasite growth for all drug conditions, producing data with proportionally greater variability or ‘noise.’ Conversely, longer incubation times reduce noise in the resulting data.
Aminoguanidine activity appears to be driven primarily by drug concentration rather than by lengthening drug incubation time.
as §3

[4] = Plasmodium falciparum, DD2, 72 h
[5] = Plasmodium falciparum, TM90, 72 h
[6] = Plasmodium falciparum, D6, Erythrocyte, 72 h

Cl.Cl.Cl.N=C(N)c1cccc(/C=N/N=C(\N)N/N=C/c2cccc(C(=N)N)c2)c1 [CGP 40215A]
IC50 (Leishmania donovani): 18000 nM
IC50 value (P. falciparum): low micromolar
IC50 (T. brucei): 20000 nM
IC50 (T. cuzi): 20000 nM

CCN(CC)CCCC(C)Nc1ccnc2cc(Cl)ccc12 (centres unmarked) [Chloroquine, reference compound]
cure in this model (Plasmodium yoelii): not curative
IC50 (P. falciparum Dd2; [4]): 70 nM
IC50 [1]: 181000 nM
IC50 (P. falciparum Tm90-C2B; [5]): 297 nM
IC50 (P. falciparum A6; Plasmodium falciparum, 72 h): 16 nM

N#Cc1cc(/C=N/NC(=N)N/N=C/c2ccc(F)c(C#N)c2)ccc1F [Compound 1]
IC50 (P. falciparum strain D6; [6]): 4 nM
cure in this model (Plasmodium yoelii): not curative
P. yoelii ED90 (Plasmodium yoelii): 0.28 mg/kg/day
P. yoelii NRD (non-recrudescence dose, cure dose) (Plasmodium yoelii): >25 mg/kg/day
IC50 (P. falciparum Dd2; [4]): 12 nM
IC50 values against P. falciparum strains (P. falciparum strains; in words): single-digit nanomolar
IC50 at 24 h [2]: 8000 nM
IC50 (P. falciparum Tm90-C2B; [5]): 16 nM
IC50 (P. falciparum A6; Plasmodium falciparum, 72 h): 14 nM

N=C(N/N=C/c1ccc(OC(F)(F)F)cc1)N/N=C/c1ccc(OC(F)(F)F)cc1 [Compound 16]
IC50 (P. falciparum strain D6; [6]): 39 nM
P. yoelii ED50 (Plasmodium yoelii): 1.2 mg/kg/day
P. yoelii ED90 (Plasmodium yoelii): 3.7 mg/kg/day
P. yoelii NRD (non-recrudescence dose, cure dose) (Plasmodium yoelii): 12.5 mg/kg/day
IC50 (P. falciparum Dd2; [4]): 83 nM
IC50 at 24 h [2]: 11000 nM
IC50 (P. falciparum Tm90-C2B; [5]): 114 nM
IC50 (P. falciparum A6; Plasmodium falciparum, 72 h): 52 nM
IC50 ([3]; 48 h, read-out: IC50 Dd2 48 hr): 410 nM
IC50 ([3]; 72 h, read-out: IC50 Dd2 72 hr): 195 nM
IC50 ([3]; 96 h, read-out: IC50 Dd2 96 hr): 192 nM

N#Cc1cccc(/C=N/NC(=N)N/N=C/c2cccc(C#N)c2)c1 [Compound 21]
IC50 (P. falciparum strain D6; [6]): 7 nM
P. yoelii ED50 (Plasmodium yoelii): 7.1 mg/kg/day
P. yoelii ED90 (Plasmodium yoelii): 9.4 mg/kg/day
P. yoelii NRD (non-recrudescence dose, cure dose) (Plasmodium yoelii): >25 mg/kg/day
IC50 (P. falciparum Dd2; [4]): 20 nM
effect on Hep2G activity ([1]; concentrations as high as 200 μM): no measurable effect
IC50 at 24 h [2]: 7000 nM
IC50 (P. falciparum Tm90-C2B; [5]): 31 nM
IC50 (P. falciparum A6; Plasmodium falciparum, 72 h): 24 nM
IC50 ([3]; 48 h, read-out: IC50 Dd2 48 hr): 31 nM
IC50 ([3]; 72 h, read-out: IC50 Dd2 72 hr): 21 nM
IC50 ([3]; 96 h, read-out: IC50 Dd2 96 hr): 22 nM

N=C(NN=Cc1ccc(C(=O)O)cc1)NN=Cc1ccc(C(=O)O)cc1 [Compound 29]
IC50 (P. falciparum strain D6; pan-sensitive strain, 72 hr, asynchronous cultures in human erythrocytes): > 5000 nM
IC50 (P. falciparum Dd2; multi-drug resistant strain, 72 hr): > 5000 nM
activity against all tested P. falciparum strains (P. falciparum strains): inactive
IC50 [1]: > 200000 nM
IC50 (P. falciparum Tm90-C2B; multi-drug resistant clinical isolate, also atovaquone resistant, 72 hr): > 5000 nM
IC50 (P. falciparum A6; mutant line resistant to respiratory antagonists, 72 hr): > 5000 nM

N=C(N/N=C/c1cccc(-n2cnnn2)c1)N/N=C/c1cccc(-n2cnnn2)c1 [Compound 34]
IC50 (P. falciparum strain D6; [6]): 1640 nM
IC50 (P. falciparum Dd2; [4]): > 5000 nM
activity against all tested P. falciparum strains (P. falciparum strains; D6, Dd2, Tm90-C2B, A6): inactive
IC50 at 24 h [2]: 107000 nM
IC50 (P. falciparum Tm90-C2B; [5]): > 5000 nM
IC50 (P. falciparum A6; Plasmodium falciparum, 72 h): 4790 nM

N=C(N/N=C/c1ccc(-n2cnnn2)cc1)N/N=C/c1ccc(-n2cnnn2)cc1 [Compound 35]
IC50 (P. falciparum strain D6; [6]): 838 nM
IC50 (P. falciparum Dd2; [4]): > 5000 nM
activity against all tested P. falciparum strains (P. falciparum strains; D6, Dd2, Tm90-C2B, A6): inactive
IC50 at 24 h [2]: > 200000 nM
IC50 (P. falciparum Tm90-C2B; [5]): > 5000 nM
IC50 (P. falciparum A6; Plasmodium falciparum, 72 h): > 5000 nM
